Reference: patent US20250302965A1, “Preparations of Basic pH Hydrotropes & Methods for Making Same” (Aurora Pharmaceutical, Inc., priority 2023, published 2025)

Experiment: not given
Conditions: source named in cell (Merck Index, Pubchem, published literature); cited from earlier work
For `CC(C(=O)O)c1ccc2c(c1)[nH]c1ccc(Cl)cc12` (stereo not drawn) [Carprofen], the “Reported Solubility in Water (in w/v)” value is given as 0.00411% (Pubchem) % w/v.
In the case of `CCc1nc2c(C)nc(C)cc2n1-c1ccc(CCNC(=O)NS(=O)(=O)c2ccc(C)cc2)cc1` [Grapiprant], the “Reported Solubility in Water (in w/v)” value is listed as “Insoluble (Pubchem)”.
For `CN1C(C(=O)Nc2ccccn2)=C(O)c2ccccc2S1(=O)=O` [Piroxicam], the “Reported Solubility in Water (in w/v)” value is listed as 0.00497% (Pubchem) % w/v.
In the case of `CCc1ccc(Nc2c(F)c(F)cc(F)c2F)c(CC(=O)O)c1` [Robenacoxib], the “Reported Solubility in Water (in w/v)” value is listed as 0.017% (published literature) % w/v.
In the case of `Nc1ccc(S(=O)(=O)Nc2ncccn2)cc1` [Sulfadiazine], the “Reported Solubility in Water (in w/v)” value is given as 0.0077% (Pubchem) % w/v.
For `COc1cc(NS(=O)(=O)c2ccc(N)cc2)nc(OC)n1` [Sulfadimethoxine], the “Reported Solubility in Water (in w/v)” value is listed as 0.0343% (Pubchem) % w/v.

Experiment: not given
Conditions: cited from earlier work
For `CNC[C@H](O)[C@@H](O)[C@H](O)[C@H](O)CO` [Meglumine], the “acidity (pKa)” value is listed as 8.01.

Experiment: Solubilization by meglumine chelate system (hydrotrope) at basic pH
Conditions: basic pH with meglumine
With `O=C(CNC(=O)c1ccc(C2=NOC(c3cc(Cl)cc(C(F)(F)F)c3)(C(F)(F)F)C2)c2ccccc12)NCC(F)(F)F` (stereo not drawn) [Afoxolaner] the “Dissolution after treatment to create a chelate system” value (from here on “Dissolution after treatment”) was “Contains two amides and two aromatic groups, but the amides are not on a chain between the two aromatic groups. The one nitrogen atom that is between the two aromatic groups is not a secondary amine, amide or amino sulfone and did not dissolve when tested”.
With `COc1ccc(-c2cc(C(F)F)nn2-c2ccc(S(N)(=O)=O)cc2)cc1F` [Deracoxib] the “Dissolution after treatment” value was “Contains two aromatic groups and an aryl amino sulfone but the two nitrogen atoms between the aromatic groups are not secondary amines, amides or amino sulfones and did not dissolve when tested”.
For `CCN1CCN(c2cc3c(cc2F)c(=O)c(C(=O)O)cn3C2CC2)CC1` [Enrofloxacin], the “Dissolution after treatment” value was “Contains only tertiary amines and only one aromatic group and did not dissolve when tested”.
For `CC[C@H](C)[C@H]1O[C@]2(C=C[C@@H]1C)C[C@@H]1C[C@@H](C/C=C(\C)[C@@H](O[C@H]3C[C@H](OC)[C@@H](O[C@H]4C[C@H](OC)[C@H](NC(C)=O)[C@H](C)O4)C(C)O3)[C@@H](C)/C=C/C=C3\CO[C@@H]4[C@H](O)C(C)=C[C@@H](C(=O)O1)[C@]34O)O2` (stereo partly drawn) [Eprinomectin], the “Dissolution after treatment” value was “Contains an amide, but no amines, amino sulfones or aromatic groups and did not dissolve when tested”.
With `COC(=O)Nc1nc2ccc(Sc3ccccc3)cc2[nH]1` [Fenbendazole] the “Dissolution after treatment” value was “Contains two aromatic groups and an amide, but the amide is not on the chain between the two aromatic groups and did not dissolve when tested”.
For `CC1(C)OC(=O)C(OCC2CC2)=C1c1ccc(S(C)(=O)=O)cc1` [Firocoxib], the “Dissolution after treatment” value was “Does not contain any nitrogen and only one aromatic group with an aryl sulfone and did not dissolve when tested”.
For `CS(=O)(=O)c1ccc([C@@H](O)[C@@H](CF)NC(=O)C(Cl)Cl)cc1` [Florfenicol], the “Dissolution after treatment” value was “Contains an amide and an aryl sulfone, but only one aromatic group and did not dissolve when tested”.
With `O=[N+]([O-])/N=C1\NCCN1Cc1ccc(Cl)nc1` [Imidacloprid] the “Dissolution after treatment” value was “Contains a secondary amine and other nitrogen containing groups but only one aromatic group and did not dissolve when tested”.
With `O=C(NC(=O)c1c(F)cccc1F)Nc1cc(Cl)c(OC(F)(F)C(F)C(F)(F)F)cc1Cl` (stereo not drawn) [Lufenuron] the “Dissolution after treatment” value was “Contains two aromatic groups separated by two amide groups between the two aromatic groups and did not dissolve when tested”.
For `CO/N=C1\C[C@]2(C[C@@H]3C[C@@H](C/C=C(\C)C[C@@H](C)/C=C/C=C4\CO[C@@H]5[C@H](O)C(C)=C[C@@H](C(=O)O3)[C@]45O)O2)O[C@H](/C(C)=C/C(C)C)[C@H]1C` [Moxidectin], the “Dissolution after treatment” value was “No amines, amides, amino sulfones, or aromatic groups and did not dissolve when tested”.
For `COc1ccc2[nH]c([S+]([O-])Cc3ncc(C)c(OC)c3C)nc2c1` (stereo not drawn) [Omeprazole], the “Dissolution after treatment” value was “Contains an aromatic benzene ring, a sulfoxide and an aromatic benzimidazole group, but it does not contain a secondary amine, amide or amino sulfone group and did not dissolve when tested”.
For `Cc1cc(-n2c(=O)[nH]c(=O)n(C)c2=O)ccc1Oc1ccc(S(=O)(=O)C(F)(F)F)cc1` [Ponazuril], the “Dissolution after treatment” value was “Contains two aromatic groups and a sulfoxide and an amide, but the amide is not on the chain between the two aromatic rings and did not dissolve when tested”.

Same assay, conditions: basic pH, meglumine at least 2:1 molar ratio (meglumine to molecule)
With `CCc1nc2c(C)nc(C)cc2n1-c1ccc(CCNC(=O)NS(=O)(=O)c2ccc(C)cc2)cc1` [Grapiprant] the “Examples of Solubilities Demonstrated in Experiments (in w/v)” value was “At least 1.5% w/v”.

Experiment: Meloxicam formulations at different meglumine-to-meloxicam molar ratios; neutralization
Type: physicochemical
Conditions: […] w/v meloxicam formula, 2:1 meglumine-to-meloxicam, neutralized; pH crossed neutral
With `Cc1cnc(NC(=O)C2=C(O)c3ccccc3S(=O)(=O)N2C)s1` [Meloxicam] the Behaviour on neutralization was “fell out of solution”.
